Read-outs that look alike come from different tables or passages of the source.
How the values were obtained:
multiple CYP isoforms = details: for P, calculated primary KIE, average / S, calculated secondary KIE, average: Avg over isoforms with unmasked KIE; for INTER KIE, average: Avg over isoforms with unmasked KIE (p-MA: 1A2, 2B1, 2B6, 2E1; o-MA: six isoforms; α-ClMpX: 1A2, 2B1, 2B6); for Intramolecular KIE, average: Avg over the CYP isoforms tested; for Intramolecular KIE, range of values: range over the CYP isoforms tested
CYP2C8 = target: T1, CYP2C8 (Homo sapiens, UniProt P10632); details: pH 7.4
T1 sequence (P10632 1-490): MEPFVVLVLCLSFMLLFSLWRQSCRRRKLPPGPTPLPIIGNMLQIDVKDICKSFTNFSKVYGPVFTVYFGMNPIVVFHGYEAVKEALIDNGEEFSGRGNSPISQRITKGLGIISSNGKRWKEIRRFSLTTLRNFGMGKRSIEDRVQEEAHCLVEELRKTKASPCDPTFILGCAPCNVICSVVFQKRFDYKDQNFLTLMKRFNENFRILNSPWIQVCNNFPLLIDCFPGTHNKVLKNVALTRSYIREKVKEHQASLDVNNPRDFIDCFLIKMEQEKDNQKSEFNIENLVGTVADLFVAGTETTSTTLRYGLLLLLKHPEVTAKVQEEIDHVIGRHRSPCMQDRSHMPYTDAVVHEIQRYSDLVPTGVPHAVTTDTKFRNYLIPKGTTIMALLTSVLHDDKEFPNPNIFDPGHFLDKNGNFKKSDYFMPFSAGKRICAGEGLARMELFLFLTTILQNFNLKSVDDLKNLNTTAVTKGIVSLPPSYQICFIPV

CYP1A1 = target: T2, CYP1A1 (Homo sapiens, UniProt P04798)
T2 sequence (P04798 1-512): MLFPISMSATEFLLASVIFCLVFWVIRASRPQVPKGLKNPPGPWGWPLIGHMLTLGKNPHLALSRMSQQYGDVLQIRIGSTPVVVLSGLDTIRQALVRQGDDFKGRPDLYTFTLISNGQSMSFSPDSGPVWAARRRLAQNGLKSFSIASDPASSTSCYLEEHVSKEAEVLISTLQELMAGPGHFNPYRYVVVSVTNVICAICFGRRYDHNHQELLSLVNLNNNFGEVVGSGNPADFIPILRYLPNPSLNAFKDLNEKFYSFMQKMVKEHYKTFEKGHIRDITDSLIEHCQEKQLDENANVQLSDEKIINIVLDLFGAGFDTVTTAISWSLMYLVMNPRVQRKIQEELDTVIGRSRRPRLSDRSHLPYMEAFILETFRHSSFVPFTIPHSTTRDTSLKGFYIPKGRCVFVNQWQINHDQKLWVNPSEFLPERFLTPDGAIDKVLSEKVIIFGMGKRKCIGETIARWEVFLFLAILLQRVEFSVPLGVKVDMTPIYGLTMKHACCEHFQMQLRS

CYP2C9 [1] = target: T3, CYP2C9 (Homo sapiens, UniProt P11712); assay: Regioselectivity and inter-/intramolecular KIE for 4-methylanisole (Table 15); format: in vitro ADME
T3 sequence (P11712 whole entry): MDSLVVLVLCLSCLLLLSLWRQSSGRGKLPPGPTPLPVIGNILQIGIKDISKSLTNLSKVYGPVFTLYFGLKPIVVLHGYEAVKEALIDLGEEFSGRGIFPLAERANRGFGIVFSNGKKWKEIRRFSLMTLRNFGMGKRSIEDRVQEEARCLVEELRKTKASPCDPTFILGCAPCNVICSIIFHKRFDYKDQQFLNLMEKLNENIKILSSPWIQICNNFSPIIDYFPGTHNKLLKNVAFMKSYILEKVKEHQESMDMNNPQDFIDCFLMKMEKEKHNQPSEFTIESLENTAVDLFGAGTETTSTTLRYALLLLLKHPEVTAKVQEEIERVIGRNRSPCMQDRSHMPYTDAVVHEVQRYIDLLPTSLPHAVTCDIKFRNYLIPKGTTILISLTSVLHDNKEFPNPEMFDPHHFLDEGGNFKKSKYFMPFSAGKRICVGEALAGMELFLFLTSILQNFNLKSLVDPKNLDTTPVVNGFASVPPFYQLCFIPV

CYP3A4 = CYP3A4 (Homo sapiens, UniProt P08684); assay: as above; format: in vitro ADME
Chain of CYP3A4 (P08684 whole entry): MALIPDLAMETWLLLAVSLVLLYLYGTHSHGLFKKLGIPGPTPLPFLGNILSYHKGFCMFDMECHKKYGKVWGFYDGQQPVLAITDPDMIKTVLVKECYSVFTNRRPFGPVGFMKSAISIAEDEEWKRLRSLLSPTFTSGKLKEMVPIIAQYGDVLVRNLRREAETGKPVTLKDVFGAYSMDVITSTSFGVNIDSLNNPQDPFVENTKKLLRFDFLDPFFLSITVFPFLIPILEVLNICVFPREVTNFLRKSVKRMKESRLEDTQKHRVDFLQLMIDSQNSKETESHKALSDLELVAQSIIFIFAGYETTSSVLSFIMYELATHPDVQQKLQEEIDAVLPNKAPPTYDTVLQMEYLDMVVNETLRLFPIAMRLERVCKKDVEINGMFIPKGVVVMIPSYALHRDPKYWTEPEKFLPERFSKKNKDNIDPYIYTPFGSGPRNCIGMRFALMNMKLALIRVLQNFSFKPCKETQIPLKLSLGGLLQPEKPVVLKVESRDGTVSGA

CYP2E1 = CYP2E1 (Homo sapiens, UniProt P05181); assay: in vitro
Chain of CYP2E1 (P05181 whole entry): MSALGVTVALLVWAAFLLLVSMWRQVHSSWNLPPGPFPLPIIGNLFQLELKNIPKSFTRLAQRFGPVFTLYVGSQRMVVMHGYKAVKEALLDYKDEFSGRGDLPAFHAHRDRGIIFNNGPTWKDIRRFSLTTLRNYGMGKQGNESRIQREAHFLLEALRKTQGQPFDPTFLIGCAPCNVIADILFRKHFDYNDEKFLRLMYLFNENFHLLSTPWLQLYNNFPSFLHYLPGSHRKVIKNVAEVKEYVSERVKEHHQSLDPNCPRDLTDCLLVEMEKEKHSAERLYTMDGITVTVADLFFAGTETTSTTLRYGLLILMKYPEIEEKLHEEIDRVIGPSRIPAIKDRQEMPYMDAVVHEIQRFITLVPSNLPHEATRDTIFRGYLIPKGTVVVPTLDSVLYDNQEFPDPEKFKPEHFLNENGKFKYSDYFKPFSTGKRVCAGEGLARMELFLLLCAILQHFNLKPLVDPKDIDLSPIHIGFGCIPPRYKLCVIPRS

CYP4B1 = CYP4B1 (Oryctolagus cuniculus, UniProt P15128); assay: in vitro
Chain of CYP4B1 (P15128 whole entry): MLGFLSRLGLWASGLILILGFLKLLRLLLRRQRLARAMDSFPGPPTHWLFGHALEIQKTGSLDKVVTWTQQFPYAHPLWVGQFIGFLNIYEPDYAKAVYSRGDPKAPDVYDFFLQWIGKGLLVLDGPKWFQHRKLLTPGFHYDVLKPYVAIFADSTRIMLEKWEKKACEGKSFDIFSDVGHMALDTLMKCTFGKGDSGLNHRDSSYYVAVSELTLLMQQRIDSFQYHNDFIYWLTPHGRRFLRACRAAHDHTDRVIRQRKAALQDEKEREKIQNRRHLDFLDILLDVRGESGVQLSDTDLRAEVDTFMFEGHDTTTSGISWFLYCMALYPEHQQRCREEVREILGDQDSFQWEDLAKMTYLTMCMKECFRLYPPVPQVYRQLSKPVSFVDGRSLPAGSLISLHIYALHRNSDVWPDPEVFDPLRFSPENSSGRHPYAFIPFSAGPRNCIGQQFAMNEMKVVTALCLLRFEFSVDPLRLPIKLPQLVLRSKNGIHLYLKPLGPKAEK

CYP2B6 = target: T4, CYP2B6 (Homo sapiens, UniProt P20813); assay: in vitro
T4 sequence (P20813 1-491): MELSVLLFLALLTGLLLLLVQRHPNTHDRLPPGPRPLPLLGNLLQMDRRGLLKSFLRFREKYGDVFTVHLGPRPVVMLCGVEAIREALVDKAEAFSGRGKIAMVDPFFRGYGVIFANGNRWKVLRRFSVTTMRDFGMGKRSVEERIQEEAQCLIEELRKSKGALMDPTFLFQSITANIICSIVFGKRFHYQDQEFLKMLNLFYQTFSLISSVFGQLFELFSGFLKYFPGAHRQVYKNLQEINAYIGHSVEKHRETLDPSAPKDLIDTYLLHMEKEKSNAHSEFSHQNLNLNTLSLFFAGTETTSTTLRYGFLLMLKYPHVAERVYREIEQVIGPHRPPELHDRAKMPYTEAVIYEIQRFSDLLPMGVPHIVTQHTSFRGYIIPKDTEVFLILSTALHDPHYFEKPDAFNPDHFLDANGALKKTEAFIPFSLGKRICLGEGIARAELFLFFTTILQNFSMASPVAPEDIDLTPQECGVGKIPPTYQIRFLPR

CYP1A2 = target: T5, CYP1A2 (Homo sapiens, UniProt P05177); assay: in vitro
T5 sequence (P05177 1-516): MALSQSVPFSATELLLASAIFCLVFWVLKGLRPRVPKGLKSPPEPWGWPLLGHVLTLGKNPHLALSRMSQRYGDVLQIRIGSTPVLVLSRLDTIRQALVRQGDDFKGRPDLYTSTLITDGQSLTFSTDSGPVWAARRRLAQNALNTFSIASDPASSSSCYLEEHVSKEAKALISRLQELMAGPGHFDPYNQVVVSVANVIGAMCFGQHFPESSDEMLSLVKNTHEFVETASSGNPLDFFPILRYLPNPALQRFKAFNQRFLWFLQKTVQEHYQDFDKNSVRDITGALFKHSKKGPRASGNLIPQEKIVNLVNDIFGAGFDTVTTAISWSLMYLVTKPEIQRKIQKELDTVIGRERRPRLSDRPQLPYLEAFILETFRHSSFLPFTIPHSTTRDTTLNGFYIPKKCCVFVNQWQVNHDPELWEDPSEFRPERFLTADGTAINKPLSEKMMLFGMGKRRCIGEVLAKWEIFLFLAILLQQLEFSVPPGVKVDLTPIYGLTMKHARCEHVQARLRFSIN

CYP2C9 [2] = target: T3, CYP2C9; assay: in vitro
[3] = pH 7.4, Regioselectivity BzH:Arom
[4] = pH 7.4, Regioselectivity BzH:ODAlk

## COc1ccc(C)cc1 [p-Methylanisole, p-methylanisole]
Multiple CYP isoforms
  P, calculated primary KIE, average: 5
  S, calculated secondary KIE, average: 1.2
  INTER KIE, average: 6
  Intramolecular KIE, average: 4.4
  Intramolecular KIE, range of values: 3.69-6.08
Multiple CYP isoforms; listed as p-MA
  INTER KIE, average: 6±1
  P, calculated primary KIE, average: 5±1
  S, calculated secondary KIE, average: 1.15±0.22
  Intramolecular KIE, average: 4.4±0.3
Multiple CYP isoforms; range over the isoforms
  Combined intermolecular competitive KIE, range: 5.9-6.8
  P (primary KIE), range: 4.3-5.0
  S (secondary KIE), range: 1.08-1.22
CYP2C8
  nmol p-CR: 0.20 nmol
  nmol p-MBA: 1.89 nmol
  nmol total TP: 2.08 nmol
CYP1A1; CYP1A1 (Table 15)
  Intermolecular KIE: 2.17
  Intramolecular KIE: 4.23
CYP1A1; CYP1A1, benzylic oxidation vs O-dealkylation
  δΔG^†: 1.12 kcal/mol
CYP2C9 [1]; CYP2C9 (Table 15)
  Intermolecular KIE: 3.52
  Intramolecular KIE: 3.92
CYP2C9 [1]; CYP2C9, benzylic oxidation vs O-dealkylation
  δΔG^†: 1.87 kcal/mol
CYP3A4; CYP3A4 (Table 15)
  Intermolecular KIE: 2.76
  Intramolecular KIE: 5.27
CYP3A4; CYP3A4, benzylic oxidation vs O-dealkylation
  δΔG^†: 1.61 kcal/mol

## COc1ccccc1C [o-Methylanisole, o-methylanisole]
CYP2E1; [3]
  selectivity ratio: 0.48
CYP2E1; [4]
  selectivity ratio: 1.6
Multiple CYP isoforms
  ΔΔG^‡ corresponding to regioselectivity BzH:ODAlk: 0.1-0.65
  P, calculated primary KIE, average: 8
  S, calculated secondary KIE, average: 1.2
  INTER KIE, average: 11
  Intramolecular KIE, average: 6.2
  Intramolecular KIE, range of values: 5.7-6.9
Multiple CYP isoforms; 20 min, […], pH 7.4
  Ring hydroxylation products, share of total products: 30-60%
Multiple CYP isoforms; listed as o-MA
  INTER KIE, average: 11±3
  P, calculated primary KIE, average: 8±3
  S, calculated secondary KIE, average: 1.2±0.4
  Intramolecular KIE, average: 6.2±0.6
Multiple CYP isoforms; range over the isoforms
  P (primary KIE), range: 6.7-8.9
  S (secondary KIE), range: 1.15-1.29
Multiple CYP isoforms; range over the isoforms, listed as o-MA
  Regioselectivity BzH:ODAlk, range: 1.2-2.9
CYP2C8
  Metabolite profile, Phenol: 33 Mol-%
  Metabolite profile, o-CR: 36 Mol-%
  Metabolite profile, o-MBA: 31 Mol-%
  nmol 4M3MPh: 0.2 nmol
  nmol TP: 0.6 nmol
  nmol o-CR: 0.2 nmol
  nmol o-MBA: 0.21 nmol
CYP4B1; [3]
  selectivity ratio: 22
CYP4B1; [4]
  selectivity ratio: 0.7
CYP2B6; [3]
  selectivity ratio: 2
CYP2B6; [4]
  selectivity ratio: 0.52
CYP1A2; [3]
  selectivity ratio: 0.63
CYP1A2; [4]
  selectivity ratio: 2.9
CYP2C9 [2]; [3]
  selectivity ratio: 1.6
CYP2C9 [2]; [4]
  selectivity ratio: 2.5
